Experiments:
Conditions in all cases: 72 h
[1] = system: Vero E6; test: drug sensitivity score (DSS) for viability; higher = more toxic; extreme values may be limits of the assay
[2] = system: HepG2; test: as above
[3] = system: Calu-3; test: as above
[4] = system: Caco-2; test: as above
[5] = system: U2OS; test: as above
[6] = system: Vero E6; test: cell viability relative to DMSO; higher = less toxic
[7] = system: HepG2; test: as above
[8] = system: Calu-3; test: as above
[9] = system: Caco-2; test: as above
[10] = system: U2OS; test: as above
[11] = system: Vero E6; test: relative viability EC50 (midpoint between 100% and the lowest measured viability); higher = less toxic
[12] = system: HepG2; test: as above
[13] = system: Calu-3; test: as above
[14] = system: Caco-2; test: as above
[15] = system: U2OS; test: as above

| SMILES | drug sensitivity score [1] | drug sensitivity score [2] | drug sensitivity score [3] | drug sensitivity score [4] | drug sensitivity score [5] | cell viability ([6]; 1 nM) [%] | cell viability ([6]; 10 nM) [%] | cell viability ([6]; 100 nM) [%] | cell viability ([6]; 1000 nM) [%] | cell viability ([6]; 10000 nM) [%] | cell viability ([7]; 1 nM) [%] | cell viability ([7]; 10 nM) [%] | cell viability ([7]; 100 nM) [%] | cell viability ([7]; 1000 nM) [%] | cell viability ([7]; 10000 nM) [%] | cell viability ([8]; 1 nM) [%] | cell viability ([8]; 10 nM) [%] | cell viability ([8]; 100 nM) [%] | cell viability ([8]; 1000 nM) [%] | cell viability ([8]; 10000 nM) [%] | cell viability ([9]; 1 nM) [%] | cell viability ([9]; 10 nM) [%] | cell viability ([9]; 100 nM) [%] | cell viability ([9]; 1000 nM) [%] | cell viability ([9]; 10000 nM) [%] | cell viability ([10]; 1 nM) [%] | cell viability ([10]; 10 nM) [%] | cell viability ([10]; 100 nM) [%] | cell viability ([10]; 1000 nM) [%] | cell viability ([10]; 10000 nM) [%] | relative viability EC50 [11] [µM] | relative viability EC50 [12] [µM] | relative viability EC50 [13] [µM] | relative viability EC50 [14] [µM] | relative viability EC50 [15] [µM] |
| --- | --- | --- | --- | --- | --- | --- | --- | --- | --- | --- | --- | --- | --- | --- | --- | --- | --- | --- | --- | --- | --- | --- | --- | --- | --- | --- | --- | --- | --- | --- | --- | --- | --- | --- | --- |
| O=C(NNc1ccccc1)c1ccncc1 [plurisin-1] | 0 | 0.4 | 0 | 0 | 0 | 102 | 108 | 106 | 96.7 | 95.4 | 110 | 109 | 104 | 114 | 77.8 | 97.9 | 96.6 | 93.2 | 103 | 106 | 106 | 106 | 105 | 91.6 | 101 | 103 | 96.3 | 101 | 99.9 | 99.6 | > 10 | > 10 | > 10 | > 10 | > 10 |
| CCCn1cnc2c1c(=O)n(CCCCC(C)=O)c(=O)n2C [propentofylline] | 0 | 0 | 0 | 0 | 0 | 92.4 | 92.4 | 92.1 | 93.3 | 106 | 98.6 | 106 | 103 | 96.4 | 104 | 107 | 90.8 | 99 | 94.8 | 108 | 91.1 | 97.5 | 91.5 | 102 | 106 | 98.4 | 98.6 | 101 | 101 | 101 | > 10 | > 10 | > 10 | > 10 | > 10 |
| CCCOc1ccc(C(=O)OCCN(CC)CC)cc1N [proxymetacaine] | 0 | 0 | 0 | 0 | 0 | 97.2 | 95.9 | 91.9 | 97.1 | 107 | 88.5 | 102 | 99.1 | 113 | 97.9 | 102 | 96.8 | 94.2 | 101 | 102 | 92.8 | 87 | 102 | 90 | 104 | 99.9 | 97 | 101 | 97.2 | 102 | > 10 | > 10 | > 10 | > 10 | > 10 |
| CC(=O)NC[C@H]1CN(c2ccc(-c3ccc(CNCc4cnn[nH]4)cc3)c(F)c2)C(=O)O1 [radezolid] | 0 | 8.1 | 0 | 0 | 0 | 100 | 96.2 | 99.3 | 93.8 | 93.6 | 105 | 106 | 108 | 54.4 | 49.2 | 104 | 97.6 | 97.4 | 90.6 | 101 | 96.8 | 106 | 104 | 118 | 87.8 | 98.9 | 98.8 | 99.7 | 96.4 | 94.2 | > 10 | 0.472 | > 10 | > 10 | > 10 |
| Cc1cc2nc3c(=O)[nH]c(=O)nc-3n(C[C@H](O)[C@H](O)[C@H](O)CO)c2cc1C [riboflavin] | 0 | 0 | 0 | 0 | 0 | 96.6 | 91.9 | 96.3 | 94.2 | 95.4 | 95.9 | 85 | 93.7 | 93.4 | 93 | 102 | 104 | 86 | 107 | 92.2 | 99 | 95.3 | 92.7 | 107 | 96.8 | 97.4 | 101 | 96.2 | 102 | 94.6 | > 10 | > 10 | > 10 | > 10 | > 10 |
| O=c1c2ccccc2nc2n1CCc1c-2[nH]c2ccccc12 [rutaecarpine] | 0 | 1.7 | 0 | 0 | 0 | 103 | 104 | 98.3 | 100 | 98.8 | 104 | 105 | 98.7 | 93.7 | 76.4 | 87 | 102 | 98.8 | 111 | 87.9 | 102 | 100 | 92.9 | 97.1 | 91.6 | 96.5 | 101 | 97 | 106 | 99.8 | > 10 | > 10 | > 10 | > 10 | > 10 |
| COc1cc2c(c(OC)c1OC)-c1c(cc3c(c1OC)OCO3)CC(C)C(C)C2 (stereo not given) [schisandrin-B] | 0 | 0 | 0 | 0.8 | 0 | 96 | 98.5 | 93.4 | 96.1 | 101 | 89.1 | 99.3 | 95.8 | 105 | 101 | 96.3 | 83.3 | 94.5 | 105 | 90.1 | 97.5 | 99.5 | 98.9 | 100 | 77.4 | 101 | 91.8 | 102 | 97.3 | 93.5 | > 10 | > 10 | > 10 | > 10 | > 10 |

Source: the supplement of paper PMC13380429
